Columns and labels:
melanoma RPMI-7951 cells = conditions: non-toxic concentration of 0.5 μM; cited from earlier work
[1] = system: breast cancer MDA-MB-231 cells; conditions: non-toxic concentration of 0.5 μM; cited from earlier work
[2] = system: colorectal carcinoma HT-29 cells; conditions: non-toxic concentration of 0.5 μM; cited from earlier work
[3] = system: Human erythrocytes (O(I)+); experiment: Hemolysis assay; format: cell-based; conditions: 1 h, 37 °C, PBS pH 7.4
Method: Human erythrocytes (O(I)+) were obtained from Vladivostok blood transfusion station. Erythrocytes were centrifuged with PBS (pH 7.4) for 5 min at 4 °C by 450× g on a LABOFUGE 400R (Heraeus, Hanau, Germany) centrifuge three times. Then, the residue of erythrocytes was resuspended in ice-cold PBS (pH 7.4) to a final optical density of 2.0 at 700 nm and kept on ice. For the hemolytic assay, 180 µL of erythrocyte suspension was mixed with 20 µL of Cucumarioside A2-2 (positive control) and investigated compounds at concentrations range of 0.1, 0.5, 1, 5, 10 µM in V-bottom 96-well plates. After 1 h of incubation at 37 °C, plates were centrifuged at 900× g for 10 min on an LMC-3000 (Biosan, Riga, Latvia) laboratory centrifuge. Then, we carefully selected 100 µL of supernatant and transferred it to new flat plates, respectively. Lysis of erythrocytes was determined by measuring the concentration of hemoglobin in the supernatant with a microplate photometer Multiskan FC (Thermo Fisher Scientific, Waltham, MA, USA) at 570 nm. The effective dose causing 50% of erythrocytes hemolysis (ED50) was calculated using the computer program SigmaPlot 10.0. All experiments were made in triplicate, p < 0.01.

[4] = system: non-cancerous mouse epidermal cells JB6 Cl41; experiment: Cell viability, MTS assay, JB6 Cl41; format: cell-based; conditions: MTS assay, 24 h, normal cells; read-out: IC50, cell viability JB6 Cl41
Method: (§1) MTS assay was used to measure the cell viability of tested normal and cancer cells. Cells were seeded into 96-well plates (“Jet Biofil”, Guangzhou, China) at density of 1.0 × 10^4/200 µL for 24 h at 37 °C in a 5% CO2 incubator. Then, cell monolayer was treated either with DMSO (control) or various concentrations of the triterpene glycosides 1–9 from S. pacificus (0.1, 0.5, 2.5, 12.5, 62.5 µM) in fresh appropriate culture medium for 24 h. Subsequently, the cells were incubated with 15 µL of 3-(4,5-dimethylthiazol-2-yl)-5-(3-carboxymethoxyphenyl)-2-(4-sulfophenyl)-2H-tetrazolium (MTS reagent) (“Promega”, Madison, WI, USA) for 3 h, and the absorbance of each well was measured at 490/630 nm using Power Wave XS microplate reader (“BioTek”, Wynusky, VT, USA). The concentration at which the compounds exert half of their maximal inhibitory effect on cell viability (IC50) was calculated by the AAT-Bioquest® online calculator [39]. The selectivity index (SI) was calculated as described previously using the following formula SI = IC50 of the compounds in normal cell (JB6 Cl41)/IC50 of the same compounds in human melanoma cell lines (SK-MEL-2, SK-MEL-28, or RPMI-7951).

JB6 Cl41 cells [5] = experiment: Soft agar assay, TPA-induced neoplastic cell transformation; format: cell-based, mouse; conditions: compound 0.1 µM, TPA 10 ng/mL, soft agar, 2 weeks, vs positive control; 0.1 µM
Method: (§2) JB6 Cl41 cells (2.4 × 10^4) were exposed to epidermal growth factor (EGF) (1 ng/mL) or phorbol 12-myristate 13-acetate (TPA) (10 ng/mL) and treated either with DMSO (control) or the triterpene glycosides 1–9 from S. pacificus (0.1, 0.5, and 1 µM) in 1 mL of 0.3% basal medium Eagle (BME) agar containing 10% FBS, 2 mM L-glutamine, and 25 µg/mL gentamicin (agar mix). The cultures were maintained in a humidified atmosphere with 5% CO2 at 37 °C for 14 days, and the cell’s colonies were scored using a microscope, Motic AE 20 (XiangAn, Xiamen, China), and the ImageJ software bundled with 64-bit Java 1.8.0_112 (NIH, Bethesda, MD, USA). To determine the effect of investigated compounds on neoplastic cell transformation induced by ionizing radiation (X-ray or UVB), JB6 Cl41 cells (3 × 10^5/dish) were seeded in 60 mm dishes and cultured for 24 h at 37 °C in 5% CO2 incubator. Then, the cells were exposed to X-rays (X-ray system XPERT 80 (KUB Technologies, Inc, Milford, CT, USA)) at dose of 0.5 Gy or UVB (wavelengths below 312 nm) (Bio-Link UV irradiation system, Vilber, France) at dose of 0.3 J/cm^2 three times a week for 3 weeks. Irradiated JB6 Cl41 cells (2.4 × 10^4) were treated either with DMSO (control) or the triterpene glycosides 1–9 from S. pacificus (0.1, 0.5, and 1 µM) in 1 mL of agar mix. The cultures were maintained in a humidified atmosphere with 5% CO2 at 37 °C for 14 days, and the cell’s colonies were scored using a microscope, Motic AE 20 (XiangAn, Xiamen 361101, China), and the ImageJ software bundled with 64-bit Java 1.8.0_112 (NIH, Bethesda, MD, USA).

SK-MEL-2 cells = experiment: Soft agar assay, colony formation of cancer cells; format: cell-based, human; conditions: compound 0.1 µM, 14 days
Method: SK-MEL-2 cells (2.4 × 10^4) were treated either with DMSO (control) or the triterpene glycosides 1–9 from S. pacificus (0.1 µM) in 1 mL of agar mix. After 14 days, colonies of cancer cells were scored as described above.

[6] = system: human melanoma cells SK-MEL-28; experiment: Cell viability, MTS assay, SK-MEL-28; format: cell-based
Method: as §1

JB6 Cl41 cells [7] = experiment: Soft agar assay, EGF-induced neoplastic cell transformation; format: cell-based, mouse; conditions: compound 0.1 µM, EGF 1 ng/mL, soft agar, 2 weeks, vs positive control; 0.1 µM
Method: as §2

[8] = system: human melanoma cells RPMI-7951; experiment: Cell viability, MTS assay, RPMI-7951; format: cell-based
Method: as §1

[9] = system: human melanoma cells SK-MEL-2; experiment: Cell viability, MTS assay, SK-MEL-2; format: cell-based
Method: as §1

JB6 Cl41 cells [10] = experiment: Soft agar assay, X-ray-induced neoplastic cell transformation; format: cell-based, mouse; conditions: compound 0.1 µM, X-rays 0.5 Gy three times a week for 3 weeks, soft agar
Method: as §2

JB6 Cl41 cells [11] = experiment: Soft agar assay, UVB-induced neoplastic cell transformation; format: cell-based, mouse; conditions: compound 0.1 µM, UVB 0.3 J/cm^2 three times a week for 3 weeks, soft agar
Method: as §2

CO[C@@H]1[C@@H](O)[C@H](O[C@@H]2[C@@H](O)[C@H](O[C@H]3[C@H](O)[C@@H](O[C@@H]4OC[C@@H](O)[C@H](O)[C@H]4O)[C@H](O[C@H]4[C@H](O[C@H]5CC[C@]6(C)[C@@H]7CCC89C(=O)O[C@@](C)(/C=C\C=C(C)C)[C@H]8[C@@H](OC(C)=O)C[C@@]9(C)C7=CC[C@H]6C5(C)C)OC[C@@H](O)[C@@H]4O)O[C@@H]3C)O[C@H](CO)[C@H]2O)OC[C@H]1O (stereo partly shown) [cucumarioside C1]
suppression of colony formation of RPMI-7951 cells (melanoma RPMI-7951 cells): almost completely suppressed | suppression of colony formation of MDA-MB-231 cells [1]: almost completely suppressed | suppression of colony formation of HT-29 cells [2]: almost completely suppressed

CC(=O)OC1CC2(C)C3=CCC4C(C)(C)C(OC5OCC(O)C(O)C5OC5OC(C)C(OC6OC(CO)C(O)C(O)C6O)C(O)C5OC5OCC(O)C(O)C5O)CCC4(C)C3CCC23C(=O)OC(C)(C=CC=C(C)C)C13 [Compound 5, 3β-O-{β-D-glucopyranosyl-(1→4)-[β-D-xylopyranosyl-(1→2)]-β-D-quinovopyranosyl-(1→2)-β-D-xylopyranosyl}-16β-acetoxyholosta-7,22Z,24-triene]
ED50, effective dose causing 50% of erythrocytes hemolysis [3]: 7.02 ± 0.46 µM | IC50 [4]: 8.7 ± 0.2 µM | inhibition of TPA-induced neoplastic transformation of JB6 Cl41 cells (JB6 Cl41 cells [5]): 17% | decrease of colonies number of SK-MEL-2 cells (colony formation) (SK-MEL-2 cells): 13% | SI (selectivity index) SK-MEL-28 ([6]; IC50 JB6 Cl41 / IC50 SK-MEL-28): 0.3 | IC50 ([6]; MTS assay, 24 h, read-out: IC50, cell viability SK-MEL-28): 25.3 ± 0.09 µM | inhibition of EGF-induced neoplastic transformation of JB6 Cl41 cells (JB6 Cl41 cells [7]): 16% | SI (selectivity index) RPMI-7951 ([8]; IC50 JB6 Cl41 / IC50 RPMI-7951): 0.23 | IC50 ([8]; MTS assay, 24 h, read-out: IC50, cell viability RPMI-7951): 38 ± 0.3 µM | SI (selectivity index) SK-MEL-2 ([9]; IC50 JB6 Cl41 / IC50 SK-MEL-2): 0.2 | IC50 ([9]; MTS assay, 24 h, read-out: IC50, cell viability SK-MEL-2): 37.3 ± 0.01 µM | inhibition of X-ray-induced cell transformation (JB6 Cl41 colonies formation) (JB6 Cl41 cells [10]): less than 15% | inhibition of UVB-induced neoplastic cell transformation (decrease of colonies number) (JB6 Cl41 cells [11]): not effective

COC1C(O)COC(OC2C(O)C(CO)OC(OC3C(C)OC(OC4C(OC5CCC6(C)C7CCC89C(=O)OC(C)(/C=C/C=C(C)C)C8C(OC(C)=O)CC9(C)C7=CCC6C5(C)C)OCC(O)C4O)C(OC4OCC(O)C(O)C4O)C3O)C2O)C1O (stereo not shown) [cucumarioside C2]
suppression of colony formation of RPMI-7951 cells (melanoma RPMI-7951 cells): almost completely suppressed | suppression of colony formation of MDA-MB-231 cells [1]: almost completely suppressed | suppression of colony formation of HT-29 cells [2]: almost completely suppressed

pacificusoside C
suppression of colony formation of RPMI-7951 cells (melanoma RPMI-7951 cells): almost completely suppressed | suppression of colony formation of MDA-MB-231 cells [1]: almost completely suppressed | suppression of colony formation of HT-29 cells [2]: almost completely suppressed

— article PMC8951750, “In Vitro Anticancer and Cancer-Preventive Activity of New Triterpene Glycosides from the Far Eastern Starfish Solaster pacificus” (Marine Drugs, 2022)
